Data reported in patent publication US20240300959A1, “BALASUBRAMIDE DERIVATIVE AND USE THEREOF IN PREPARATION OF MEDICINE FOR TREATING ACUTE LUNG INJURY” (Guangdong Pharmaceutical University, priority 2023, published 2024).

How the values were obtained:
[1] = test system: TNF-α in RAW264.7 macrophages stimulated by lipopolysaccharide; assay: TNF-α ELISA in cell supernatant of LPS-stimulated RAW264.7 macrophages; format: cell-based, mice; settings: 10 μM; for activity at 10 µM: Mus musculus, RAW264.7, 2 h, 3 h pretreatment, LPS 100 ng/mL 2 h, RAW264.7, read-out: Percentage of TNF-α in a model group (%)
Experimental: RAW264.7 cells were inoculated into a 96-well plate at a density of 1×10^5 per well. When the cell density was 70%-80%, 18 balasubramide derivatives were prepared into 10 mM working solutions with DMSO, respectively, and then used to pretreat mononuclear macrophages RAW264.7 of mice at a final concentration of 10 μM. After 3 h, lipopolysaccharide (LPS, 100 ng/mL) was added into all wells for action for 2 h except for a control group. A supernatant was collected for later use, and the expression level of an inflammatory factor TNF-α in the cell supernatant was detected according to an operation instruction of a commercial ELISA kit.
RAW264.7 cells were inoculated into a 96-well plate at a density of 1×10^5 per well. When the cell density was 70%-80%, the RAW264.7 cells were pretreated with (+)3C-20 ([…]). After 3 h, lipopolysaccharide (LPS, 100 ng/mL) was added into all wells for action for 2 h except for a control group. The expression level of an inflammatory factor TNF-α in a cell supernatant was detected according to an operation instruction of a commercial ELISA kit, and the cell viability at different administration concentrations of (+)3C-20 was determined according to an operation instruction of a CCK-8 kit.

[2] = test system: RAW264.7 cells; assay: Cytotoxicity test, CCK-8 cell viability of RAW264.7 cells (24 h); format: cell-based, mice; settings: 10 μM, RAW264.7 cell viability
Experimental: RAW264.7 cells were inoculated into a 96-well plate at a density of 1×10^5 per well. When the cell density was 70%-80%, the RAW264.7 cells were pretreated with 10 mM working solutions prepared from 18 balasubramide derivatives at a final concentration of 10 μM for 24 h, and then the cell viability was determined by a CCK-8 method.

| SMILES | anti-inflammatory activity (inhibition of expression of TNF-α in macrophages), in words ([1]; RAW264.7, LPS) | Percentage of CCK-8 in a model group (%) [2] [%] | activity at 10 µM [1] [%] |
| --- | --- | --- | --- |
| O=C(CCc1ccc(C(F)(F)F)cc1)O[C@@H]1C(=O)NCCc2c([nH]c3ccccc23)[C@H]1c1ccc(C(F)(F)F)cc1 (racemic) [(±)-3C-20] | better anti-inflammatory activity than other derivatives |  |  |
| O=C1NCCc2c([nH]c3ccccc23)[C@@H](c2ccc(C(F)(F)F)cc2)[C@@H]1O [(+)-3C] |  | 105.39 ± 4.26 | 86.4 ± 3.06 |
| O=C(CCc1ccc(C(F)(F)F)cc1)O[C@@H]1C(=O)NCCc2c([nH]c3cccc(F)c23)[C@H]1c1ccc(C(F)(F)F)cc1 [(+)-B3a] |  | 103.22 ± 1.79 | 91.2 ± 3.03 |
| COc1ccc2[nH]c3c(c2c1)CCNC(=O)[C@@H](OC(=O)CCc1ccc(C(F)(F)F)cc1)[C@@H]3c1ccc(C(F)(F)F)cc1 [(+)-B3c] |  | 96.16 ± 4.12 | 84.5 |
| O=C(CCc1ccc(C(F)(F)F)cc1)O[C@@H]1C(=O)NCCc2c([nH]c3ccc(F)cc23)[C@H]1c1ccc(C(F)(F)F)cc1 [(+)-B3d] |  | 90.33 ± 5.86 | 101 ± 4.46 |
| O=C(CCc1ccc(C(F)(F)F)cc1)O[C@@H]1C(=O)NCCc2c([nH]c3ccc(Br)cc23)[C@H]1c1ccc(C(F)(F)F)cc1 [(+)-B3e] |  | 95.66 ± 4.02 | 76.2 |
| O=C(CCc1ccc(C(F)(F)F)cc1)O[C@@H]1C(=O)NCCc2c([nH]c3cc(Cl)ccc23)[C@H]1c1ccc(C(F)(F)F)cc1 [(+)-B3f] |  | 96.96 ± 3.85 | 90.2 ± 2.92 |
| Cc1cccc2c3c([nH]c12)[C@@H](c1ccc(C(F)(F)F)cc1)[C@H](OC(=O)CCc1ccc(C(F)(F)F)cc1)C(=O)NCC3 [(+)-B3g] |  | 101.49 ± 2.57 | 78.5 |
| O=C(CCc1ccc(C(F)(F)F)cc1)O[C@@H]1C(=O)NCCc2c([nH]c3ccc(OCc4ccccc4)cc23)[C@H]1c1ccc(C(F)(F)F)cc1 [(+)-B3h] |  | 99.75 ± 1.27 | 66.1 |
